In publication PMC10979003, “Development and crystal structures of a potent second-generation dual degrader of BCL-2 and BCL-xL” (Nature Communications, 2024):

What was measured:
[1] = target: T1, BCL-xL R103A/D107A/S110A/Q111A (Homo sapiens, UniProt Q07817, D107A/Q111A/R103A/S110A); assay: AlphaScreen binary binding, BCL-xL R103A/D107A/S110A/Q111A; details: mean ± s.d., n=3; read-out: Ki (nM, n=3), BCL-xL R103A/D107A/S110A/Q111AA
T1 construct: BCL-xL (aa 2-212) and BCL-2 (aa 1-207) transformed cells were grown in LB broth; SMT3 (N); made in house; host or cells: E. coli BL21 (DE3) codon plus
T1 sequence (Q07817 2-212 R103A/D107A/S110A/Q111A): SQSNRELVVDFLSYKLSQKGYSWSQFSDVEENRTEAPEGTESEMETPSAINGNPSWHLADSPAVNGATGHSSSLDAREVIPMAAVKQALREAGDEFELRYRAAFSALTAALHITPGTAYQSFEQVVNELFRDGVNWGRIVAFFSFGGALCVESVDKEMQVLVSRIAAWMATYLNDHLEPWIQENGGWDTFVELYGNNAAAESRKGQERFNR
Procedure: (§1) To test the binary/ternary binding affinities of compounds to BCL-2/BCL-xL, AlphaScreen displacement binding assay was performed to test the capabilities of testing compounds to displace a Biotin-tagged Bim (Biotin-[…]) or Bad (Biotin-[…]) from BCL-2 or BCL-xL for BCL-2 and BCL-xL binding affinities, respectively. All reagents were diluted in assay buffer of 25 mM HEPES, pH 7.5, 150 mM NaCl, 0.1% BSA, and 0.005% tween 20 prior incubation. To a 96-well PCR plate (VWR, Cat. No. 82006-636) was added 10 μL Biotin-tagged Bim (15 nM for WT or 50 nM for mutants) or Bad (15 nM for WT or 50 nM for mutants), 10 μL series diluted compounds solution (2 or 3 or 4× dilution), and 10 μL self-made 6×His tagged BCL-2 WT or mutants (25 nM WT or 50 nM mutants) or 10 μL self-made BCL-xL WT and mutants (10 nM WT or 50 nM mutants). […] The luminescence signal was detected on a Biotek’s Synergy Neo2 multimode plate reader installed with an AphaScreen filter cube. The Ki values of each compounds were calculated by fitting data into the “Binding-competitive, One site-Fit Ki” function in GraphPad Prism (9.2.0) based on concentrations of Biotin–peptide used and experimentally determined Kd values of each 6×His protein &&&and Biotin–Peptide pair.

BCL-xL R103A/D107A/S110A = target: T2, BCL-xL R103A/D107A/S110A (Homo sapiens, UniProt Q07817, D107A/R103A/S110A); assay: AlphaScreen binary binding, BCL-xL R103A/D107A/S110A; details: mean ± s.d., n=3
T2 construct: BCL-xL (aa 2-212) and BCL-2 (aa 1-207) transformed cells were grown in LB broth; SMT3 (N); made in house; host or cells: E. coli BL21 (DE3) codon plus
T2 sequence (Q07817 2-212 R103A/D107A/S110A): as the sequence (Q07817 2-212 R103A/D107A/S110A/Q111A) above, with A110Q counted along it
Procedure: as §1

HiBiT-BCL-2/HaloTag-VHL = target: T3, HiBiT-BCL-2/HaloTag-VHL (Homo sapiens, UniProt P10415+P40337); assay: NanoBRET ternary complex formation assay in 293T cells, HiBiT-BCL-2 and HaloTag-VHL; assay type: cell-based; details: 4 h, MG132 pretreatment
T3 construct: full-length BCL-xL and BCL-2 were expressed in cells for the nanoBRET assay; host or cells: 293T
T3 sequence (P10415 whole entry): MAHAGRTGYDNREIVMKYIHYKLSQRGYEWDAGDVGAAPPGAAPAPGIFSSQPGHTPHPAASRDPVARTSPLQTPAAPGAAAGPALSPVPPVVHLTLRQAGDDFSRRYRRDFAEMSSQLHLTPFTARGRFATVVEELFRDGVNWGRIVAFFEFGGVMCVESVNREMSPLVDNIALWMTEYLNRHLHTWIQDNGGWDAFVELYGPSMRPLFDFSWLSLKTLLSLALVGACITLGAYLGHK
T3 sequence (P40337 whole entry): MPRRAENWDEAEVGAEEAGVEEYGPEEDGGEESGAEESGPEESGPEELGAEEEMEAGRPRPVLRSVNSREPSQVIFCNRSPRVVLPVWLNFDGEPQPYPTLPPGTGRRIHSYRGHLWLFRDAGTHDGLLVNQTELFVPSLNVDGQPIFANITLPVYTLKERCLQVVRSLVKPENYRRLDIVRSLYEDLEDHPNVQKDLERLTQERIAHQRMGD
T3 sequence (Q15370 whole entry, further chain): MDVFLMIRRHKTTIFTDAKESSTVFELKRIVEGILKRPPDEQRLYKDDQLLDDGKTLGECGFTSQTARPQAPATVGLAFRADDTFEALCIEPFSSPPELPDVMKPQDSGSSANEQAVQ
T3 sequence (Q15369 whole entry, further chain): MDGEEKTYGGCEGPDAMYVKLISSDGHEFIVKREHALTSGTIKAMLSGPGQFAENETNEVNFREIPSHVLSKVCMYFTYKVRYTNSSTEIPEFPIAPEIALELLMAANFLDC
Procedure: Plasmids HaloTag-VHL (Cat. No. CS1679C155) and CMV HiBiT (Cat. No. CS1956B03) were purchased from Promega. HiBiT-BCL-xL and HiBiT-BCL-2 were constructed previously. 293T cells (8 × 10^5 cells/well in a 6-well plate) were transfected with Lipofectamine (Life Technologies) and 1 μg HaloTag-VHL, 20 ng HiBiT-BCL-xL and 20 ng LgBiT or 1 μg HaloTag-VHL, 20 ng HiBiT-BCL-2 and 20 ng LgBiT. After 48 h, 2 × 10^4 transfected cells were seeded into each well of white 96-well tissue culture plates in Gibco™ Opti-MEM™ I Reduced Serum Medium, No Phenol Red (Cat. No. 11-058-021, Fisher) containing 4% FBS with or without HaloTag NanoBRET 618 Ligand (Cat. No. PRN1662, Promega) and incubated overnight at 37 °C, 5% CO2. […] After treatment, NanoBRET Nano-Glo Substrate (cat. no. N1662, Promega) was added into the medium, and the contents were mixed by shaking the plate for 30 s before measuring donor and acceptor signals on Biotek plate reader. Dual-filtered luminescence was collected with a 450/50 nm bandpass filter (donor, NanoBiT-BCL-XL protein or NanoBiT-BCL-2 protein) and a 610-nm longpass filter (acceptor, HaloTag NanoBRET ligand) using an integration time of 0.5 s. mBRET ratios were calculated following the NanoBRET™ Nano-Glo® Detection System (Cat. No. N1662, Promega).

BCL-2 E114A Q118A = target: T4, BCL-2 E114A Q118A (Homo sapiens, UniProt P10415, E114A/Q118A); assay: AlphaScreen binary binding, BCL-2 E114A Q118A; details: mean ± s.d., n=3
T4 construct: BCL-xL (aa 2-212) and BCL-2 (aa 1-207) transformed cells were grown in LB broth; made in house; host or cells: E. coli BL21 (DE3) codon plus
T4 sequence (P10415 1-207 E114A/Q118A): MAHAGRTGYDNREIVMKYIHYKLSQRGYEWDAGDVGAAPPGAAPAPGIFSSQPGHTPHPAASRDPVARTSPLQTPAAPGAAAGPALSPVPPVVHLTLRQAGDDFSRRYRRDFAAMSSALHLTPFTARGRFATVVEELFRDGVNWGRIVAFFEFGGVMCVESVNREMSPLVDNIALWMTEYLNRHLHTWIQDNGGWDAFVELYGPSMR
Procedure: as §1

human platelets = assay: Potency against human platelets in vitro; assay type: cell-based
Jurkat cells = assay: Viability (MTS) assay in Jurkat cells; assay type: cell-based, human; details: 72 h
Procedure: For the viability assays in Jurkat cells, the cells in complete cell culture medium were seeded in 96-well plates (100 µl per well) at the optimized densities (50,000 cells). Compound treatments were prepared in complete cell culture medium and 100 µl of 2× treatment-containing medium were added to each well. Complete cell culture medium without treatment was added in control wells, and wells containing medium without cells served as background. The outer wells of the 96-well plate were not used for treatment and were filled with 250 µl of PBS to reduce evaporation of medium from inner wells. Each compound and/or combination was tested at nine different concentrations with three replicates. The cell viability was measured after 72 h by tetrazolium-based MTS assay. […] The cells were incubated for 4 h at 37 °C and 5% CO2, and then the absorbance was recorded at 490 nm using Biotek’s Synergy Neo2 multimode plate reader (Biotek). The average absorbance value of background wells was subtracted from absorbance value of each control and treatment well, and percent cell viability ((At/A0) × 100) was determined in each treatment well, where At is the absorbance value of the treatment well and A0 is the average absorbance value of control wells after background subtraction. […]

BCL-2 R110A E114A = target: T5, BCL-2 R110A E114A (Homo sapiens, UniProt P10415, E114A/R110A); assay: AlphaScreen binary binding, BCL-2 R110A E114A; details: mean ± s.d., n=3
T5 construct: BCL-xL (aa 2-212) and BCL-2 (aa 1-207) transformed cells were grown in LB broth; made in house; host or cells: E. coli BL21 (DE3) codon plus
T5 sequence (P10415 1-207 R110A/E114A): as the sequence (P10415 1-207 E114A/Q118A) above, with R110A, A118Q counted along it
Procedure: as §1

Ki [1] | Ki (BCL-xL R103A/D107A/S110A) | SMILES | Cellular ternary complex formation with BCL-2 (comparison) (HiBiT-BCL-2/HaloTag-VHL) | Ki (BCL-2 E114A Q118A) | Increase in therapeutic index compared to ABT263 (human platelets) | Potency in killing Jurkat cells (comparison) (Jurkat cells) | Ki (BCL-2 R110A E114A)
23 ± 4 nM | 18.4 ± 2.3 nM | Cc1ncsc1-c1ccc(C(C)NC(=O)C2CC(O)CN2C(=O)C(NC(=O)CCCCCCC(=O)N2CCN(CC3(C)CCC(c4ccc(Cl)cc4)=C(CN4CCN(c5ccc(C(=O)NS(=O)(=O)c6ccc(NC(CCN7CCOCC7)CSc7ccccc7)c(S(=O)(=O)C(F)(F)F)c6)cc5)CC4)C3)CC2)C(C)(C)C)cc1 (stereo not shown) [753b] |  |  |  |  | 
 |  | Cc1ncsc1-c1ccc([C@H](C)NC(=O)[C@@H]2C[C@@H](O)CN2C(=O)[C@@H](NC(=O)CN2CCN(CC(=O)N3CCN(C[C@]4(C)CCC(c5ccc(Cl)cc5)=C(CN5CCN(c6ccc(C(=O)NS(=O)(=O)c7ccc(N[C@H](CCN8C[C@@H]9C[C@H]8CO9)CSc8ccccc8)c(S(=O)(=O)C(F)(F)F)c7)cc6)CC5)C4)CC3)CC2)C(C)(C)C)cc1 [WH244] | modestly better than 753b | 9.6 ± 0.7 nM | more than 100 fold | outperformed 753b, DT2216, and ABT263 | 5.8 ± 0.6 nM
